From ChEMBL document CHEMBL1159232, “Bipolal: anti-microalgal compound isolated as a candidate for marine antifouling produced by Bipolaris sp. F5206” (1995)
Converted amounts (≈) assume the structure as drawn.

Test system: Trichophyton mentagrophytes
Test: Antimicrobial activity against Trichophyton mentagrophytes by microbroth dilution method
Type: functional

SMILES: C=C(C=O)[C@]1(O)C[C@@]2(C)C(=CC1=O)C=C[C@H](OC(=O)/C=C/C=C/[C@@H](C)CC)[C@@H]2C
- MIC: 1.58 µg/mL (≈ 3.96 µM)
